Experimental data published in US12214076B2, “Drug delivery vehicles for atherosclerosis nanomedicine” (Northwestern University, priority 2019, dated 2025).
Peptide text beside a SMILES is read from it.

Columns and labels:
[1] = Dialysis LXR agonist release study; type: physicochemical; conditions: non-encapsulated LXR agonist, PBS, within the first hour
Description: LXR-40% ApoA1 PA (1 mM with respect to PA) was dissolved in PBS. […] To each dialysis cup 0.1 mL of sample was added with one cup used for each time-point to be measured. All samples were dialyzed against 4 mL of PBS at 37° C. The total contents of one dialysis cup were isolated and kept at 4° C. until measurement at each time point. […] For LC-MS, a 5 to 95% acetonitrile (0.1% formic acid) gradient was run over 30 min with mobile phase containing 0.1% NH40H. A total ion chromatogram was obtained in MS mode and integrated using Mass Hunter Agilent software. The peak area corresponding to [M-H]− for GW3965 was recorded for each sample in negative ion mode and normalized according to the volume of sample present. Percent encapsulation was determined as follows:
[formula] where NPA is the normalized peak area corresponding to LXR agonist (normalized for solution volume).

[2] = test system: LDLR KO mice; experiment: Atherosclerosis treatment study; type: in vivo, mouse; conditions: both sexes
Description: Mouse model of atherosclerosis: To study atherosclerosis, the LDLR KO mouse was used. LDLR KO mice are fed a high fat “western” diet (Teklad TD.88137) starting at 4 weeks of age. This diet consists of 20% fat, 0.2% cholesterol, and 34% high sucrose. LDLR KO mice fed this diet typically develop severe hypercholesterolemia (>800 mg/dL) and hypertriglyceridemia (>300 mg/dL) after only 2 weeks. By 12 weeks on the high fat diet, atherosclerotic lesions are detected in the aortic root and aortic arch on cryosections stained with Oil Red O (Sigma). Atherosclerosis was quantified in the aortic root as a percentage of the aortic root by taking the atherosclerotic area divided by the total aortic root area. Measurements were made with ImageJ software. All protocols for the animal model and procedures in this manuscript were approved by Northwestern University's Institutional Animal Care and Use Committee.
(§1) Blood samples were collected at the end of the treatment study for toxicology analysis. Mice were euthanized three days after their 16th treatment.
(§2) Tissue processing and imaging: Mice were sacrificed and euthanized under inhaled isoflurane anesthesia by diaphragm disruption and exsanguination. Phlebotomy was performed through direct right ventricular cardiac puncture using a 1 mL syringe and 25 G needle. Perfusion was performed through left ventricular cardiac puncture with 10 mL PBS and 10 mL 10% sucrose solution. The lungs, liver, spleen, kidney, aortic root, aortic arch, and descending aorta were harvested and stored in 10% sucrose for 20 minutes. Organs and vessels were then flash-frozen in Optimal Cutting Temperature embedding medium 4583 (Tissue-Tek®) with liquid nitrogen. Frozen specimens were stored at −80° C. and cryosectioned at […]. Confocal microscopy was performed on a Nikon AIR microscope. Two sets of images were acquired with a 10× Plan Fluor NA 0.3 objective. PAs were identified through quantification of the Alexa Fluor® 546 conjugated dye with 561 nm excitation and a 600/50 nm emission filter.
Images were acquired with spectral detection and spectrally unmixed to accurately separate green autofluorescence from the red Alexa Fluor® 546 signal. Brightfield and fluorescent microscopy were performed using a Zeiss Axio Imager.A2 microscope with AxioVision software (release 4.8.2, 06-2010). All confocal and fluorescent sections were mounted with ProGold Diamond mounting media (Sigma). Slides were stained with Oil Red O to image and quantify atherosclerosis under brightfield microscopy. The elastic laminae were identified using the green fluorescent protein (GFP) filter with an exposure time of 3500 ms under 5× magnification. Nanofibers were identified in the aortic root by presence of Alexa Fluor® 546 on the Cy3 filter under 5-10× magnification, and in the internal organs under 20× magnification. Fluorescent pixel quantification in the aortic root and within organs was performed with ImageJ software.
(§3) Statistics: The effect of treatments and sex on atherosclerosis progression in mice was analyzed using one- or two-factor analysis of variance (ANOVA) followed by a post-hoc student's t-test. The toxicological effects of treatments were also analyzed using two-factor ANOVA and a post-hoc student's t-test. Toxicological effects of treatments on liver proteins AST, ALT, and ALP were further analyzed using ordinal logistic regression models of likelihood ratio tests, followed by a post-hoc Wald test

[3] = Solubility of LXR agonist without PA; type: physicochemical; conditions: deionized water or PBS
[4] = test system: J774.2 mouse macrophages; experiment: In Vitro Cholesterol Efflux Assay (Example 1); type: cell-based; conditions: two- and threefold higher concentrations of LXR
[5] = Treatment study serum chemistry (toxicology analysis); type: in vivo, mouse; conditions: for Alanine Aminotransferase (ALT) / Alkaline phosphatase / Aspartate Aminotransferase (AST) / Bicarbonate and CO2 / Bilirubin - Conjugated / Bilirubin - Unconjugated / Blood Urea Nitrogen / Cholesterol / Creatine / Creatine Kinase / Globulin / Glucose / Potassium / Sodium / Total Bilirubin / Total Protein: group median, end of 8-week treatment
Description: as §1, §2, §3

[6] = target: T1, human recombinant MMP2 (Homo sapiens, UniProt P08253); experiment: MMP-Ac2-26 PA cleavage assay; type: biochemical; conditions: 40 nM MMP2, 24 hours, 37° C.
T1 construct: purchased R&D systems
T1 sequence (P08253 110-660): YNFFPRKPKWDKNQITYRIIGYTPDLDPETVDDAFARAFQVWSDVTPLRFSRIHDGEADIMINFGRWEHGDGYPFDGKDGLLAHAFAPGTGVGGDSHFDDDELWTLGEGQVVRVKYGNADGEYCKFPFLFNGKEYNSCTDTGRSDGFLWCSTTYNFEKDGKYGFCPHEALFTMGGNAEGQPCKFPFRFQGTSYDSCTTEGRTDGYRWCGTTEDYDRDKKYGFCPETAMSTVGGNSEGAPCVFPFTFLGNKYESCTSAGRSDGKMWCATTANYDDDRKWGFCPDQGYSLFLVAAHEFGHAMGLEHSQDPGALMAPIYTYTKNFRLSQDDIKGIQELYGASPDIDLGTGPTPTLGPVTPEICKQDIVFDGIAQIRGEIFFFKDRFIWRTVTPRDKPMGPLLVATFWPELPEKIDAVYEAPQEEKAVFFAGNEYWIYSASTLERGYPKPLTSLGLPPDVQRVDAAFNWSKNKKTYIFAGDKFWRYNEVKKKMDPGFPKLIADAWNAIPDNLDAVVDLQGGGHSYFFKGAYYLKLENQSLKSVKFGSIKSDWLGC
Description: ROS-Ac2-26 and MMP-Ac2-26 PA cleavage assays: To examine ROS-mediated cleavage, 3-morpholinosydnonimine hydrochloride (SIN-1, Sigma-Aldrich or Abcam) was used. ROS-Ac2-26 PAs were reconstituted to 0.5 mM in phosphate buffer and treated with 100 μM SIN-1 for 24 hours at 37° C. For MMP2/9-mediated cleavage, human recombinant MMP2 (R&D systems, carrier-free) was used, activated with freshly prepared 1 mMp-aminophenylmercuric acetate (APMA, Sigma-Aldrich) for one hour at 37° C. The APMA disrupts the cysteine-zinc bond in MMP2 responsible for enzyme latency by liberation of the sulfhydryl group. 10% MMP-Ac2-26 PA co-assemblies were prepared at 0.5 mM in a cleavage buffer containing 50 mM tricine, 50 mM NaCl, 50 μM ZnCl2, and 10 mM CaCl2) at pH 7.4, and treated with 40 nM human recombinant MMP2 for 24 hours at 37° C. At the end of each time point, the samples were stored at −20° C., effectively stopping the cleavage reactions. Samples were analyzed at room temperature, 0.04-0.3 mg/mL with 0.1% NH4OH using a ThermoFisher Q Exactive HIF-X (ThermoFisher, Bremen, Germany) mass spectrometer coupled with a Waters Acquity H-class liquid chromatograph system. […] All measurements were recorded at a resolution setting of 120,000. […] Injection volume for all samples was […]. Data was analyzed on Xcalibur (ThermoFisher, Breman, Germany).

[7] = test system: J774.2 murine macrophages; type: cell-based, mouse
Description: To measure cell metabolic activity, thiazolyl blue tetrazolium bromide (MTT, Sigma-Aldrich) was added to cells at 0.4 mg/mL in complete medium for 4 hours at 37° C. The plates were then aspirated and 100 µL of DMSO added for 10-15 minutes at room temperature on a plate shaker at low speed setting. The plates were run on an Epoch plate reader using absorbance at 560 nm corrected for background at 670 nm. Flow cytometry analysis for iNOS expression followed the methods described above.

Cl.O=C(O)Cc1cccc(OCCCN(Cc2cccc(C(F)(F)F)c2Cl)CC(c2ccccc2)c2ccccc2)c1 [LXR, GW3965]
release across the dialysis membrane [1]: up to 85%
reversal of atherosclerosis from baseline levels [2]: approximately 5%
atherosclerosis progression in comparison to the PBS control ([2]; twice per week over eight weeks, percent of atherosclerosis in the aortic root): significantly decreased
solubility [3]: insoluble
LXR effects upon macrophage efflux [4]: no significant increases
Alanine Aminotransferase (ALT) ([5]; All mice): 40 U/L
Alkaline phosphatase ([5]; All mice): 65.5 U/L
Aspartate Aminotransferase (AST) ([5]; All mice): 135 U/L
Bicarbonate and CO2 ([5]; All mice): 12 mmol/L
Bilirubin - Conjugated ([5]; All mice): 0.05 mg/dL
Bilirubin - Unconjugated ([5]; All mice): 0.3 mg/dL
Blood Urea Nitrogen ([5]; All mice): 23 mg/dL
Cholesterol ([5]; All mice): 2000.5 mg/dL
Creatine ([5]; All mice): 0 U/L
Creatine Kinase ([5]; All mice): 137.5 U/L
Globulin ([5]; All mice): 2.7 g/dL
Glucose ([5]; All mice): 237 mg/dL
Potassium ([5]; All mice): 5.2 mmol/L
Sodium ([5]; All mice): 139.5 mmol/L
Total Bilirubin ([5]; All mice): 0.4 mg/dL
Total Protein ([5]; All mice): 5.45 g/dL
Alanine Aminotransferase (ALT) ([5]; Females): 33 U/L
Alkaline phosphatase ([5]; Females): 73 U/L
Aspartate Aminotransferase (AST) ([5]; Females): 142 U/L
Bicarbonate and CO2 ([5]; Females): 10 mmol/L
Bilirubin - Conjugated ([5]; Females): 0 mg/dL
Bilirubin - Unconjugated ([5]; Females): 0.5 mg/dL
Blood Urea Nitrogen ([5]; Females): 21.5 mg/dL
Cholesterol ([5]; Females): 2029 mg/dL
Creatine ([5]; Females): 0 U/L
Creatine Kinase ([5]; Females): 136 U/L
Globulin ([5]; Females): 2.3 g/dL
Glucose ([5]; Females): 203 mg/dL
Potassium ([5]; Females): 4.6 mmol/L
Sodium ([5]; Females): 140 mmol/L
Total Bilirubin ([5]; Females): 0.6 mg/dL
Total Protein ([5]; Females): 5.4 g/dL
Alanine Aminotransferase (ALT) ([5]; Males): 47 U/L
Alkaline phosphatase ([5]; Males): 41 U/L
Aspartate Aminotransferase (AST) ([5]; Males): 102 U/L
Bicarbonate and CO2 ([5]; Males): 14 mmol/L
Bilirubin - Conjugated ([5]; Males): 0.1 mg/dL
Bilirubin - Unconjugated ([5]; Males): 0.2 mg/dL
Blood Urea Nitrogen ([5]; Males): 24 mg/dL
Cholesterol ([5]; Males): 1972 mg/dL
Creatine ([5]; Males): 0 U/L
Creatine Kinase ([5]; Males): 138 U/L
Globulin ([5]; Males): 2.8 g/dL
Glucose ([5]; Males): 259 mg/dL
Potassium ([5]; Males): 5.2 mmol/L
Sodium ([5]; Males): 139 mmol/L
Total Bilirubin ([5]; Males): 0.3 mg/dL
Total Protein ([5]; Males): 5.5 g/dL
AST levels in comparison to the PBS control ([5]; female mice): no significant differences
aspartate aminotransferase (AST) in the blood in comparison to PBS ([5]; male mice): significantly elevated levels of aspartate aminotransferase (AST)

C16-V2A2 (SEQ ID NO: 8)-E2-GGGPQGIWGQGK (SEQ ID NO: 1)-AMVSEFLKQAWFIENEEQEYVQTVK (SEQ ID NO: 7)-NH2 (C16-VVAAEEGGGPQGIWGQGKAMVSEFLKQAWFIENEEQEYVQTVK-NH2) [MMP-Ac2-26 PA]
Ac2-26 release from PA nanofibers [6]: released Ac2-26

CC[C@H](C)[C@H](NC(=O)[C@H](Cc1ccccc1)NC(=O)[C@H](Cc1c[nH]c2ccccc12)NC(=O)[C@H](C)NC(=O)[C@H](CCC(N)=O)NC(=O)[C@H](CCCCN)NC(=O)[C@H](CC(C)C)NC(=O)[C@H](Cc1ccccc1)NC(=O)[C@H](CCC(=O)O)NC(=O)[C@H](CO)NC(=O)[C@@H](NC(=O)[C@H](CCSC)NC(=O)[C@H](C)NC(C)=O)C(C)C)C(=O)N[C@@H](CCC(=O)O)C(=O)N[C@@H](CC(N)=O)C(=O)N[C@@H](CCC(=O)O)C(=O)N[C@@H](CCC(=O)O)C(=O)N[C@@H](CCC(N)=O)C(=O)N[C@@H](CCC(=O)O)C(=O)N[C@@H](Cc1ccc(O)cc1)C(=O)N[C@H](C(=O)N[C@@H](CCC(N)=O)C(=O)N[C@H](C(=O)N[C@H](C(=O)N[C@@H](CCCCN)C(=O)O)C(C)C)[C@@H](C)O)C(C)C [Ac2-26] (Ac-AMVSEFLKQAWFIENEEQEYVQTVK-OH; N-terminus and C-terminus assumed)
cellular metabolism (MTT) in comparison to the stimulated control [7]: did not significantly affect cellular metabolism
